Laboratory results taken from patent US12247223B2, “Human liver-like three-dimensional structure, method for evaluating hepatotoxicity and human liver-like complex” (CYFUSE BIOMEDICAL K.K., priority 2019, dated 2025).

What was measured:
[1] = tested on: human liver-like three-dimensional construct A′; settings: 10 μmol/l
Experimental: (§1) A DMSO solution of phenytoin was prepared. The obtained drug-containing DMSO solution was added to the culture medium of the human liver-like three-dimensional construct A′ fabricated in Experimental example 3′ such that the concentration of the drug in the medium was 10 μmol/l. The medium was sampled up to 6 days following the drug addition, and the metabolic products in the medium were subjected to separation and structural analysis by a LC/MS/MS method. The abbreviations of the metabolites stand for the following constructs.
as §1, with “Torcetrapib” for “phenytoin”, “method.” for “method. The abbreviations of the metabolites stand for the following constructs.”

[2] = tested on: human liver-like three-dimensional construct A; assay: Number and particle-size distribution of exosome particles (qNano); type: cell-based; settings: three days after drug addition
Experimental: (§2) The culture medium of Experimental example 5 was centrifuged at 4° C. and 2,000×g for 20 minutes, followed by centrifugation of the collected supernatant at 15,000×g for 30 minutes. To 2.2 mL of each collected sample solution, 1.1 mL of ExoCap Ultracentrifugation/Storage Booster (registered trademark) and 7.7 mL of ultrapure water were added. The resultant was homogeneously stirred and subjected to ultracentrifugation protocol (35,000 rpm, 70 minutes,4° C.). […]
(§3) The number and the particle-size distribution of the exosome particles were measured using qNano (nanoparticle multi-analyzer). In addition, expression of CD9 in the collected exosomes was confirmed by Western blotting. miRNAs contained in a sample extracted from the exosomes using a RNA extraction kit were measured by digital PCR. Furthermore, microRNAs contained in the exosomes were taken out and the amounts of miR-122, miR-192 and miR-1 were quantified by a quantitative PCR method. […]
An increase in the particle number concentration of the exosomes contained in the media was observed only three days after the drug addition. Furthermore, miR-122 was detected in the collected exosomes.

[3] = tested on: human liver-like three-dimensional construct A; assay: miR-122-5p in exosomes released from the construct, digital PCR; type: cell-based; settings: exosomes from culture medium of Experimental example 5
Experimental: (§4) A DMSO solution of trovafloxacin, a drug that is known to show hepatotoxicity when administered to a human, was prepared. […] Changes in the albumin concentrations in the media up to 24 days following addition of the drug, and the levels of ATP contained in the constructs at the end of the experiment were measured using CellTiter-Glo 3D substrate. Furthermore, tissue sections of the constructs were prepared to obtain images of HE staining and immunostaining for albumin.
as §2, with “added.” for “added. The resultant was homogeneously stirred and subjected to ultracentrifugation protocol (35,000 rpm, 70 minutes,4° C.).”
as §3

[4] = tested on: human liver-like three-dimensional construct A; assay: Assessment of hepatotoxicity: albumin concentration in the medium of the construct; type: cell-based; settings: drug 5-1000 μmol/l in medium, up to 24 days
Experimental: as §4
DMSO solutions of 20 kinds of drugs that were known to show hepatotoxicity upon administration to a human were prepared. […] Changes in the albumin concentrations in the media 7 and 14 days following addition of the drug are shown in FIG. 8, in which data were normalized to the albumin concentration in the medium added with DMSO only (taken as 100%).

monolayer culture system = assay: Albumin concentration in monolayer culture system (standard of comparison); type: cell-based; settings: monolayer culture as standard of comparison (details omitted)

CCOC(=O)N1c2ccc(C(F)(F)F)cc2[C@@H](N(Cc2cc(C(F)(F)F)cc(C(F)(F)F)c2)C(=O)OC)C[C@H]1CC [Torcetrapib]
metabolic products separated and detected by LC [1]: Two kinds of metabolic products M2 and M5

N[C@@H]1[C@H]2CN(c3nc4c(cc3F)c(=O)c(C(=O)O)cn4-c3ccc(F)cc3F)C[C@@H]12 [Trovafloxacin, trovafloxacin]
particle number concentration of the exosomes in the media [2]: increase | miR-122 in the collected exosomes [3]: detected | albumin concentration in the medium [4]: drug concentration-dependent decrease | albumin concentration, monolayer culture system (monolayer culture system): no decrease
